Patent US20260191863A1, “PYRROLOPYRIMIDINE COMPOSITIONS FOR TREATMENT OF ITK MEDIATED CONDITIONS” (ACLARIS THERAPEUTICS, INC., priority 2022, published 2026)
Where “and” joins values, the source holds several entries; their conditions need not be identical. Equal values may be shown once. Read-outs that look alike come from different tables or passages of the source.

How the values were obtained:
[1] = Phase 1 SAD study: safety and tolerability; format: in vivo, human
Experimental: Primary Endpoints—Number and percentage of adverse events (AEs) and serious adverse events (SAEs); mean change from baseline in laboratory values, vital signs, and electrocardiograms (ECGs) abnormalities.
Type of Study—This was an FIH, randomized, observer-blind, placebo-controlled study designed to evaluate the safety, tolerability, PK, and PD of Compound I in healthy subjects. The study consisted of: single ascending dose (SAD) cohorts (1-80 mg/day) plus formulation bridging and food effect (FE) cohorts.
Approximately 64 male and female subjects were enrolled into 8 planned cohorts in the SAD study. In each cohort, a total of 8 subjects were randomized to receive a single oral capsule dose of Compound I (n=6) or placebo (n=2) in the morning with approximately 240 mL of water after an overnight fast of at least 8 hours.

[2] = tested on: JAK3 (pSTAT5, lymph); assay: Pre-clinical human whole blood IL-2/pSTAT5 (20 min), lymphocytes; format: cell-based; details: for EC50: Homo sapiens, Lymphocyte
[3] = tested on: IL15 stimulated IFNγ protein; assay: Pre-clinical human whole blood IL-15/IFNγ (5 hr); format: cell-based
[4] = target: T1, ITK (Homo sapiens, UniProt Q08881); assay: Cell IC50 ITK (Jurkat/pPLCγ1); format: cell-based
T1 construct: (Jurkat/pPLCγ1); endogenous in cells; host or cells: Jurkat
T1 sequence (Q08881 1-620): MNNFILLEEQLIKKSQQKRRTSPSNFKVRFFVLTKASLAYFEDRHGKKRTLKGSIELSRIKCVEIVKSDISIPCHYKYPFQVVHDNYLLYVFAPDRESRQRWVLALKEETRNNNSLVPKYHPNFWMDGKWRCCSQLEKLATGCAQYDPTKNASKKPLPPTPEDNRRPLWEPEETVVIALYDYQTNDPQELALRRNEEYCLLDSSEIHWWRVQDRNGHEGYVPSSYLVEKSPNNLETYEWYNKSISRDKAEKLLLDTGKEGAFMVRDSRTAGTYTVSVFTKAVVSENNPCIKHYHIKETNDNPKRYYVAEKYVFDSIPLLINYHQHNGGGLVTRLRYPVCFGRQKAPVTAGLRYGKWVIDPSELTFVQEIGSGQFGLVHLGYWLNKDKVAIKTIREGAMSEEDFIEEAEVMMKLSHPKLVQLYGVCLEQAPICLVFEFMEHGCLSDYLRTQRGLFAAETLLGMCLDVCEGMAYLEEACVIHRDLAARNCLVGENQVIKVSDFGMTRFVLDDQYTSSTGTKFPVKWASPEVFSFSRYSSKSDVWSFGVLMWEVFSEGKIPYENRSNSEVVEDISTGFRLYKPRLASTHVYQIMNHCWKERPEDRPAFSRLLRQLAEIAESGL

[5] = target: T2, JAK2 (Homo sapiens, UniProt O60674); assay: Cell IC50 JAK2; format: cell-based
T2 construct: endogenous in cells

[6] = tested on: colitis (mouse T cell transfer model); assay: Mouse T cell transfer model of inflammatory bowel disease; format: in vivo
Excerpt: The study evaluated Compound I dose dependent ability to inhibit inflammation in the mouse T cell transfer model of inflammatory bowel disease.

T2 sequence (O60674 whole entry): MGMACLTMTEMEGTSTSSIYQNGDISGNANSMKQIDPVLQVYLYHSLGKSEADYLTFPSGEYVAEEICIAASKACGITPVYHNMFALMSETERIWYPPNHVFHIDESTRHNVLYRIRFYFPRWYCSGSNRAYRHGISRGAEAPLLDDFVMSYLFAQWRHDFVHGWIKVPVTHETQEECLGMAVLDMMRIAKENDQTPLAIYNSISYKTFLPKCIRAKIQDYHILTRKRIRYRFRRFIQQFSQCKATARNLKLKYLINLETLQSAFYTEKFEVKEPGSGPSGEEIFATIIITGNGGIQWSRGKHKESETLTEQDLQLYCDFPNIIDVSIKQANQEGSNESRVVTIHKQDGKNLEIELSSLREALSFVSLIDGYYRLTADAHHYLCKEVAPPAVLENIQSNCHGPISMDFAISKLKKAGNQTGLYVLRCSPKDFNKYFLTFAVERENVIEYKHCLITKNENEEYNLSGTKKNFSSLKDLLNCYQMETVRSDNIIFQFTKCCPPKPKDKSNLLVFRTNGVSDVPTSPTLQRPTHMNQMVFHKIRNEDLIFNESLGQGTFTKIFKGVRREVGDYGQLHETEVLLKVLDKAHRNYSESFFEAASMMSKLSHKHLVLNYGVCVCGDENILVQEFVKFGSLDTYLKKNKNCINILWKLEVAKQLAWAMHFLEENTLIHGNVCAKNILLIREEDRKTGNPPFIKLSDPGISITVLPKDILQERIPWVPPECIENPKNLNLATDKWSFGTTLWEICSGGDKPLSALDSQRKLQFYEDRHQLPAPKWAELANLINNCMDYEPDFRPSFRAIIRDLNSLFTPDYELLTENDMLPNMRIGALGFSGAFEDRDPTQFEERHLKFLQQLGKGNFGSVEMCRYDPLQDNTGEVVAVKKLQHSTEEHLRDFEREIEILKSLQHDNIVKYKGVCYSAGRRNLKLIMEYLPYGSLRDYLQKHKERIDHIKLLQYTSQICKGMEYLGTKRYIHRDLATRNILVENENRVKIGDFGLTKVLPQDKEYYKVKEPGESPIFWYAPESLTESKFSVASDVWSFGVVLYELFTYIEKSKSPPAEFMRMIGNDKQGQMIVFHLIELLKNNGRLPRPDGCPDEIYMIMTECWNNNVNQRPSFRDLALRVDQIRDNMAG

C=CC(=O)N1C[C@H](Nc2ncnc3[nH]cc([C@H]4CC4(F)F)c23)CC[C@@H]1C [Compound I, 1-((2S,5R)-5-((5-((R)-2,2-difluorocyclopropyl)-7H-pyrrolo[2,3-d]pyrimidin-4-yl)amino)-2-methylpiperidin-1-yl)prop-2-en-1-one]
Deaths, serious AEs, discontinuations due to AEs ([1]; SAD): no deaths, serious AEs, or discontinuations due to AEs
Safety and tolerability conclusion ([1]; SAD): safe and well tolerated
Severity of TEAEs ([1]; SAD): mild and transient
Transient increase in CK at follow-up ([1]; SAD highest dose group (80 mg)): 2 subjects
Transient increase in transaminases at follow-up ([1]; SAD highest dose group (80 mg)): 1 subject
Number of TEAEs in Compound I treated subjects ([1]; SAD, 13 subjects): 14
Changes in WBC count ([1]; SAD, during treatment and at follow-up): No clinically meaningful changes
Potency relative to Ritlecitinib, IL-2/pSTAT5 (20 min) [2]: (1.2 fold*)
EC50 ([2]; 20 min, read-out: Human Whole Blood EC50, IL-2/pSTAT5 (20 min)): 136 nM
EC50 ([2]; read-out: Pre-clinical EC50): 136 ± 51.2 nM
Potency relative to Ritlecitinib, IL-15/IFNγ (5 hr) [3]: (6.5 fold*)
IC50 ([3]; Homo sapiens): 0.0029 µg/mL and 8 nM
EC50 ([3]; Homo sapiens, 5 h, read-out: Human Whole Blood EC50, IL-15/IFNγ (5 hr)): 8 nM
Potency on ITK relative to ritlecitinib [4]: ~ 100 ×
Potency relative to Ritlecitinib, ITK (Jurkat/pPLCγ1) [4]: 81 fold
T cell receptor blockade, Compound I vs CsA [4]: equipotent
IC50 ([4]; Jurkat, pPLCγ1): 8 nM
Selectivity for ITK (over JAK3) ([4]; cell IC50 ITK vs JAK3): 3 fold
Cell IC50, JAK2 [5]: Inactive
Colitis [6]: inhibited colitis
Effect compared with anti-IL12 (P40) [6]: The effect was greater than anti-IL12 (P40)
Inflammation in proximal and distal colon, and ileum [6]: dose dependently decreased inflammation
